Measured values published in the supplement of paper PMC10307832.

Legend:
Assay in all cases: relative viability (nuclei count vs DMSO), 5 days (fraction); higher = more cells survive
NCI-H1666 = test system: NCI-H1666
Outline: (§1)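 The day after seeding in 1536-well plates, lung cancer cell lines were treated by pin tool with a single drug, or with a fixed anchor-drug dose together with five library-drug doses (not always all listed) in √10 steps. After 5 days, a combined fix-and-stain solution (final 0.05% Triton X-100, 1% formaldehyde, 1 ug/ml Hoechst) was added. Nuclei counted on 4× images gave relative viability as treated counts over vehicle counts, reported as the median of duplicate plates.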

NCI-H838 = test system: NCI-H838
Outline: as §1

UMC-11 = test system: UMC-11
Outline: as §1

ChaGo-K-1 = test system: ChaGo-K-1
Outline: as §1

NCI-H650 = test system: NCI-H650
Outline: as §1

HCC-15 = test system: HCC-15
Outline: as §1

LXF-289 = test system: LXF-289
Outline: as §1

PC-3 [JPC-3] = test system: PC-3 [JPC-3]
Outline: as §1

NCI-H322M = test system: NCI-H322M
Outline: as §1

NCI-H661 = test system: NCI-H661
Outline: as §1

NCI-H2087 = test system: NCI-H2087
Outline: as §1

NCI-H2342 = test system: NCI-H2342
Outline: as §1

NCI-H1651 = test system: NCI-H1651
Outline: as §1

LK-2 = test system: LK-2
Outline: as §1

NCI-H596 = test system: NCI-H596
Outline: as §1

NCI-H1944 = test system: NCI-H1944
Outline: as §1

LU99A = test system: LU99A
Outline: as §1

BEN = test system: BEN
Outline: as §1

NCI-H358 = test system: NCI-H358
Outline: as §1

LC-2-ad = test system: LC-2-ad
Outline: as §1

LCLC-97TM1 = test system: LCLC-97TM1
Outline: as §1

HCC-78 = test system: HCC-78
Outline: as §1

SK-MES-1 = test system: SK-MES-1
Outline: as §1

Q: How did the relative viability (NCI-H1666; first compound 0.04 µM) turn out when O=C(O)c1ccc(-c2c[nH]c3ncc(-c4ccccc4)cc23)cc1C1CCCC1 + COc1cccc2cc(-c3nc([C@H]4CC[C@H](C(=O)O)CC4)n4ncnc(N)c34)[nH]c12 [OSI-027] (partner 0.5 µM) was run?
A: Its relative viability is 0.846.

Q: What about the relative viability (NCI-H1666; first compound 0.1265 µM) of the same compound?
A: Its relative viability is 0.884.

Q: And the relative viability (NCI-H1666; first compound 0.4 µM)?
A: The relative viability was 0.906.

Q: And the relative viability (NCI-H1666; first compound 1.265 µM)?
A: The relative viability was 0.624.

Q: And the relative viability (NCI-H838; first compound 0.04 µM)?
A: The relative viability was 0.322.

Q: And the relative viability (NCI-H838; first compound 0.1265 µM)?
A: The relative viability was 0.452.

Q: And the relative viability (NCI-H838; first compound 0.4 µM)?
A: Its relative viability is 0.4.

Q: What about the relative viability (NCI-H838; first compound 1.265 µM) of the same compound?
A: Its relative viability is 0.358.

Q: And the relative viability (UMC-11; first compound 0.04 µM)?
A: The relative viability was 0.482.

Q: What about the relative viability (UMC-11; first compound 0.1265 µM) of the same compound?
A: Its relative viability is 0.547.

Q: And the relative viability (UMC-11; first compound 0.4 µM)?
A: Its relative viability is 0.46.

Q: And the relative viability (UMC-11; first compound 1.265 µM)?
A: The relative viability was 0.375.

Q: And the relative viability (ChaGo-K-1; first compound 0.04 µM)?
A: Its relative viability is 0.651.

Q: What about the relative viability (ChaGo-K-1; first compound 0.1265 µM) of the same compound?
A: Its relative viability is 0.595.

Q: What about the relative viability (ChaGo-K-1; first compound 0.4 µM) of the same compound?
A: Its relative viability is 0.532.

Q: What about the relative viability (ChaGo-K-1; first compound 1.265 µM) of the same compound?
A: The relative viability was 0.51.

Q: And the relative viability (NCI-H650; first compound 0.04 µM)?
A: Its relative viability is 0.522.

Q: And the relative viability (NCI-H650; first compound 0.1265 µM)?
A: Its relative viability is 0.6.

Q: And the relative viability (NCI-H650; first compound 0.4 µM)?
A: Its relative viability is 0.485.

Q: And the relative viability (NCI-H650; first compound 1.265 µM)?
A: Its relative viability is 0.457.

Q: And the relative viability (HCC-15; first compound 0.04 µM)?
A: Its relative viability is 0.807.

Q: What about the relative viability (HCC-15; first compound 0.1265 µM) of the same compound?
A: Its relative viability is 0.813.

Q: What about the relative viability (HCC-15; first compound 0.4 µM) of the same compound?
A: Its relative viability is 0.633.

Q: And the relative viability (HCC-15; first compound 1.265 µM)?
A: Its relative viability is 0.399.

Q: And the relative viability (LXF-289; first compound 0.04 µM)?
A: Its relative viability is 0.848.

Q: And the relative viability (LXF-289; first compound 0.1265 µM)?
A: Its relative viability is 0.879.

Q: And the relative viability (LXF-289; first compound 0.4 µM)?
A: Its relative viability is 0.764.

Q: What about the relative viability (LXF-289; first compound 1.265 µM) of the same compound?
A: Its relative viability is 0.581.

Q: And the relative viability (PC-3 [JPC-3]; first compound 0.04 µM)?
A: Its relative viability is 0.784.

Q: And the relative viability (PC-3 [JPC-3]; first compound 0.1265 µM)?
A: Its relative viability is 0.792.

Q: And the relative viability (PC-3 [JPC-3]; first compound 0.4 µM)?
A: The relative viability was 0.82.

Q: What about the relative viability (PC-3 [JPC-3]; first compound 1.265 µM) of the same compound?
A: The relative viability was 0.655.

Q: And the relative viability (NCI-H322M; first compound 0.04 µM)?
A: The relative viability was 0.546.

Q: And the relative viability (NCI-H322M; first compound 0.1265 µM)?
A: The relative viability was 0.588.

Q: What about the relative viability (NCI-H322M; first compound 0.4 µM) of the same compound?
A: The relative viability was 0.674.

Q: What about the relative viability (NCI-H322M; first compound 1.265 µM) of the same compound?
A: Its relative viability is 0.521.

Q: What about the relative viability (NCI-H661; first compound 0.04 µM) of the same compound?
A: Its relative viability is 0.766.

Q: What about the relative viability (NCI-H661; first compound 0.4 µM) of the same compound?
A: Its relative viability is 0.718.

Q: And the relative viability (NCI-H661; first compound 1.265 µM)?
A: Its relative viability is 0.734.

Q: What about the relative viability (NCI-H2087; first compound 0.04 µM) of the same compound?
A: The relative viability was 0.563.

Q: And the relative viability (NCI-H2087; first compound 0.1265 µM)?
A: The relative viability was 0.673.

Q: And the relative viability (NCI-H2087; first compound 0.4 µM)?
A: Its relative viability is 0.416.

Q: What about the relative viability (NCI-H2087; first compound 1.265 µM) of the same compound?
A: The relative viability was 0.47.

Q: What about the relative viability (NCI-H2342; first compound 0.04 µM) of the same compound?
A: The relative viability was 0.489.

Q: What about the relative viability (NCI-H2342; first compound 0.1265 µM) of the same compound?
A: Its relative viability is 0.744.

Q: And the relative viability (NCI-H2342; first compound 0.4 µM)?
A: Its relative viability is 0.748.

Q: And the relative viability (NCI-H2342; first compound 1.265 µM)?
A: The relative viability was 0.646.

Q: And the relative viability (NCI-H1651; first compound 0.04 µM)?
A: Its relative viability is 0.659.

Q: And the relative viability (NCI-H1651; first compound 0.1265 µM)?
A: Its relative viability is 0.715.

Q: What about the relative viability (NCI-H1651; first compound 0.4 µM) of the same compound?
A: The relative viability was 0.67.

Q: What about the relative viability (NCI-H1651; first compound 1.265 µM) of the same compound?
A: The relative viability was 0.583.

Q: What about the relative viability (LK-2; first compound 0.04 µM) of the same compound?
A: The relative viability was 0.202.

Q: What about the relative viability (LK-2; first compound 0.1265 µM) of the same compound?
A: Its relative viability is 0.23.

Q: What about the relative viability (LK-2; first compound 0.4 µM) of the same compound?
A: Its relative viability is 0.165.

Q: And the relative viability (LK-2; first compound 1.265 µM)?
A: The relative viability was 0.195.

Q: And the relative viability (NCI-H596; first compound 0.04 µM)?
A: The relative viability was 0.728.

Q: What about the relative viability (NCI-H596; first compound 0.1265 µM) of the same compound?
A: The relative viability was 0.733.

Q: And the relative viability (NCI-H596; first compound 0.4 µM)?
A: The relative viability was 0.833.

Q: And the relative viability (NCI-H596; first compound 1.265 µM)?
A: The relative viability was 0.654.

Q: And the relative viability (NCI-H1944; first compound 0.04 µM)?
A: Its relative viability is 0.429.

Q: And the relative viability (NCI-H1944; first compound 0.1265 µM)?
A: Its relative viability is 0.428.

Q: And the relative viability (NCI-H1944; first compound 0.4 µM)?
A: The relative viability was 0.345.

Q: What about the relative viability (NCI-H1944; first compound 1.265 µM) of the same compound?
A: Its relative viability is 0.39.

Q: And the relative viability (LU99A; first compound 0.04 µM)?
A: The relative viability was 0.314.

Q: What about the relative viability (LU99A; first compound 0.1265 µM) of the same compound?
A: The relative viability was 0.309.

Q: What about the relative viability (LU99A; first compound 0.4 µM) of the same compound?
A: The relative viability was 0.364.

Q: What about the relative viability (LU99A; first compound 1.265 µM) of the same compound?
A: The relative viability was 0.3.

Q: What about the relative viability (BEN; first compound 0.04 µM) of the same compound?
A: Its relative viability is 0.329.

Q: What about the relative viability (BEN; first compound 0.1265 µM) of the same compound?
A: The relative viability was 0.269.

Q: And the relative viability (BEN; first compound 0.4 µM)?
A: Its relative viability is 0.307.

Q: What about the relative viability (BEN; first compound 1.265 µM) of the same compound?
A: Its relative viability is 0.284.

Q: And the relative viability (NCI-H358; first compound 0.04 µM)?
A: The relative viability was 0.807.

Q: And the relative viability (NCI-H358; first compound 0.1265 µM)?
A: Its relative viability is 0.933.

Q: And the relative viability (NCI-H358; first compound 0.4 µM)?
A: Its relative viability is 0.727.

Q: What about the relative viability (NCI-H358; first compound 1.265 µM) of the same compound?
A: Its relative viability is 0.359.

Q: And the relative viability (LC-2-ad; first compound 0.04 µM)?
A: The relative viability was 0.805.

Q: And the relative viability (LC-2-ad; first compound 0.1265 µM)?
A: The relative viability was 0.905.

Q: And the relative viability (LC-2-ad; first compound 0.4 µM)?
A: The relative viability was 0.757.

Q: What about the relative viability (LC-2-ad; first compound 1.265 µM) of the same compound?
A: The relative viability was 0.68.

Q: What about the relative viability (LCLC-97TM1; first compound 0.04 µM) of the same compound?
A: The relative viability was 0.474.

Q: And the relative viability (LCLC-97TM1; first compound 0.1265 µM)?
A: The relative viability was 0.659.

Q: What about the relative viability (LCLC-97TM1; first compound 0.4 µM) of the same compound?
A: Its relative viability is 0.518.

Q: What about the relative viability (LCLC-97TM1; first compound 1.265 µM) of the same compound?
A: The relative viability was 0.526.

Q: And the relative viability (HCC-78; first compound 0.1265 µM)?
A: Its relative viability is 0.396.

Q: What about the relative viability (HCC-78; first compound 0.4 µM) of the same compound?
A: Its relative viability is 0.386.

Q: And the relative viability (HCC-78; first compound 1.265 µM)?
A: Its relative viability is 0.327.

Q: What about the relative viability (SK-MES-1; first compound 0.04 µM) of the same compound?
A: The relative viability was 0.647.

Q: And the relative viability (SK-MES-1; first compound 0.1265 µM)?
A: The relative viability was 0.648.

Q: What about the relative viability (SK-MES-1; first compound 0.4 µM) of the same compound?
A: Its relative viability is 0.622.

Q: What about the relative viability (SK-MES-1; first compound 1.265 µM) of the same compound?
A: Its relative viability is 0.41.
